# In US12576166B2, “Contrast agents for detection of enzyme activities based on melanin synthesis” (BOARD OF REGENTS, THE UNIVERSITY OF TEXAS SYSTEM, priority 2020, dated 2026):
# Molecular target: cathepsin B (Homo sapiens, UniProt P07858)
# Assay: Incubation of Agent 6 with cathepsin B; product read by colour, MSOT and absorbance
# Format: biochemical
# Details: pH 6.8, 37° C., overnight
# Protocol: We incubated 2.22 mg/mL ([…], 0.1 mL) of Agent 6 with 2 units of cathepsin B at pH 6.8 and at 37° C. overnight. Although cathepsin B is typically considered to be an endoprotease, this enzyme can work as an exoprotease at lower pH relative to physiological pH 7.4. Also, the extracellular tumor microenvironment is known to be acidic, so that pH 6.8 is a better representation of tumor conditions.
# Other samples of were prepared at 1.66, 1.11, 0.84, and 0.55 mg/mL. These solutions were inserted into a customized phantom for a multi spectral optoacoustic imaging instrument (MSOT; also known as photoacoustic imaging) (InVision instrument, iThera Medical). FIG. 12A-FIG. 12D present MSOT or absorbance spectra data for the various concentrations.
# The phantoms were imaged at 700-900 nm absorbance wavelengths in 2 nm steps. (FIG. 12A). The samples were also analyzed with a spectrofluorometer with absorbance through the same wavelength range (FIG. 12B), which matched the spectral profile and relative signal intensities of the MSOT spectra. The spectra were broad and featureless, which is expected for a melanin-based product. The signal to noise ratio (SNR) scaled with the concentration of the reactant, providing validation that the MSOT and absorbance signals were derived from the product and was not an artifact of the solution or imaging instrument (FIG. 12C, FIG. 12D).
smiles,measurement,setting,value
CC(=O)NC(Cc1ccccc1)C(=O)NC(CCCCN)C(=O)Nc1ccc(COc2cc3cc[nH]c3cc2O)cc1 (centres unmarked) [Agent 6],colour of the resulting solution (indicating melanin produced after cleavage by cathepsin B),"2.22 mg/mL Agent 6, 2 units of cathepsin B",light gray color
same,cleavage by cathepsin B to a melanin-based product detectable by MSOT,"MSOT 700-900 nm, preliminary results",cleaved by cathepsin B to create a melanin-based product that can be detected by MSOT
